Literature values in patent US20090169619A1, “CARBAMAZEPINE EXTENDED RELEASE DOSAGE FORM” (CorePharma LLC, priority 2005, published 2009).

In the case of NC(=O)N1c2ccccc2C=Cc2ccccc21 [Carbamazepine, 5H-Dibenz[b,f]azepine-5-carboxamide], the solubility in water is given as “poor solubility”.
